Values quoted from earlier work as cited in paper PMC6861001 (Chemistry (Weinheim an der Bergstrasse, Germany), 2019).

SMILES: N[C@@H](C[SeH])C(=O)O [Sec, selenocysteine]
- pKa of selenol group: ~5.2
- reduction potential E0: −386 mV
